Results taken from the supplement of paper PMC10307832.

Tests used:
Experiment in all cases: relative viability (nuclei count vs DMSO), 5 days (fraction); higher = more cells survive
ALW-II-49-7 + Crizotinib = compound: Cc1ccc(C(=O)Nc2cccc(C(F)(F)F)c2)cc1Nc1cncc(C(N)=O)c1 [ALW-II-49-7] + C[C@@H](Oc1cc(-c2cnn(C3CCNCC3)c2)cnc1N)c1c(Cl)ccc(F)c1Cl [Crizotinib] (partner 1 µM)
Summary of the method: (§1)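 A single step with final 0.05% Triton X-100, 1% formaldehyde and 1 ug/ml Hoechst fixed the cells and stained nuclei 5 days after treatment. Lung cancer cell lines in 1536-well plates had been treated by pin tool the day after seeding with one drug alone or a fixed anchor-drug dose plus five library-drug doses (not always all listed) in √10 steps, and nuclei were counted on 4× images. Relative viability is the ratio of nuclei in treated wells to nuclei in vehicle wells, taken as the median of duplicate plates.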

ALW-II-49-7 + Pictilisib = compound: Cc1ccc(C(=O)Nc2cccc(C(F)(F)F)c2)cc1Nc1cncc(C(N)=O)c1 [ALW-II-49-7] + CS(=O)(=O)N1CCN(Cc2cc3nc(-c4cccc5[nH]ncc45)nc(N4CCOCC4)c3s2)CC1 [Pictilisib] (partner 1 µM)
Summary of the method: as §1

ALW-II-49-7 + Vorinostat = compound: Cc1ccc(C(=O)Nc2cccc(C(F)(F)F)c2)cc1Nc1cncc(C(N)=O)c1 [ALW-II-49-7] + O=C(CCCCCCC(=O)Nc1ccccc1)NO [Vorinostat] (partner 1 µM)
Summary of the method: as §1

Dasatinib + Tozasertib = compound: Cc1nc(Nc2ncc(C(=O)Nc3c(C)cccc3Cl)s2)cc(N2CCN(CCO)CC2)n1 [Dasatinib] + Cc1cc(Nc2cc(N3CCN(C)CC3)nc(Sc3ccc(NC(=O)C4CC4)cc3)n2)n[nH]1 [Tozasertib] (partner 0.1 µM)
Summary of the method: as §1

UMC-11 was tested, and the relative viability (ALW-II-49-7 + Crizotinib; first compound 0.08 µM) was 0.531, the relative viability (ALW-II-49-7 + Crizotinib; first compound 0.253 µM) was 0.613 and the relative viability (ALW-II-49-7 + Crizotinib; first compound 2.53 µM) was 0.755. For the same cell line, the relative viability (ALW-II-49-7 + Crizotinib; first compound 8 µM) was 0.553, the relative viability (ALW-II-49-7 + Pictilisib; first compound 0.08 µM) was 0.917 and the relative viability (ALW-II-49-7 + Pictilisib; first compound 0.253 µM) was 0.807. For the same cell line, the relative viability (ALW-II-49-7 + Pictilisib; first compound 2.53 µM) was 1.06, the relative viability (ALW-II-49-7 + Pictilisib; first compound 8 µM) was 0.814 and the relative viability (ALW-II-49-7 + Vorinostat; first compound 0.08 µM) was 0.36. For the same cell line, the relative viability (ALW-II-49-7 + Vorinostat; first compound 0.253 µM) was 0.381, the relative viability (ALW-II-49-7 + Vorinostat; first compound 0.8 µM) was 0.324 and the relative viability (ALW-II-49-7 + Vorinostat; first compound 2.53 µM) was 0.357. It also gave a relative viability (ALW-II-49-7 + Vorinostat; first compound 8 µM) of 0.305, a relative viability (Dasatinib + Tozasertib; first compound 0.005 µM) of 0.196 and a relative viability (Dasatinib + Tozasertib; first compound 0.01581 µM) of 0.203. The relative viability (Dasatinib + Tozasertib; first compound 0.05 µM) was 0.193, the relative viability (Dasatinib + Tozasertib; first compound 0.1581 µM) was 0.184 and the relative viability (Dasatinib + Tozasertib; first compound 0.5 µM) was 0.172.
